From patent publication US12121504B1, “Method for producing 1,3-diolein from biomass” (KING SAUD UNIVERSITY, priority 2024, dated 2024)

Tested on: C. auris strain
Type: cell-based, Candida auris
Conditions: C. auris strain used in the anti-fungal test
Method: The biological activity of compound 1 (linoleic acid) as an antifungal agent against fluconazole- and caspofungin-resistant C. auris was evaluated using disk diffusion assay for determining the inhibition zone (mm) and two-fold serial microdilution assay for determining the minimal inhibitory concentration (MIC) (mg/mL) according to Dilika et al., (2000) and Zheng et al., (2005). The hexadecanoic acid and isopropyl myristate were prepared (both compounds (data not shown) were used in this stage as a negative control).

SMILES | susceptibility of C. auris strain to standard anti-fungal drug
CC[C@H](C)C[C@H](C)CCCCCCCCC(=O)N[C@H]1C[C@@H](O)[C@@H](NCCN)NC(=O)[C@@H]2[C@@H](O)CCN2C(=O)[C@H]([C@H](O)CCN)NC(=O)[C@H]([C@H](O)[C@@H](O)c2ccc(O)cc2)NC(=O)[C@@H]2C[C@@H](O)CN2C(=O)[C@H]([C@@H](C)O)NC1=O [caspofungin] | resistant
OC(Cn1cncn1)(Cn1cncn1)c1ccc(F)cc1F [fluconazole] | resistant
